This passage reports IC50 results from patent US9233979B2, “Compounds that are ERK inhibitors” (Merck Sharp & Dohme Corp., priority 2012, dated 2016).

In general, IC50 refers to the concentration at which inhibition is half-maximal.

SMILES strings stand for the structures.

Chain of phosphorylated active hERK2 enzyme (P28482 whole entry): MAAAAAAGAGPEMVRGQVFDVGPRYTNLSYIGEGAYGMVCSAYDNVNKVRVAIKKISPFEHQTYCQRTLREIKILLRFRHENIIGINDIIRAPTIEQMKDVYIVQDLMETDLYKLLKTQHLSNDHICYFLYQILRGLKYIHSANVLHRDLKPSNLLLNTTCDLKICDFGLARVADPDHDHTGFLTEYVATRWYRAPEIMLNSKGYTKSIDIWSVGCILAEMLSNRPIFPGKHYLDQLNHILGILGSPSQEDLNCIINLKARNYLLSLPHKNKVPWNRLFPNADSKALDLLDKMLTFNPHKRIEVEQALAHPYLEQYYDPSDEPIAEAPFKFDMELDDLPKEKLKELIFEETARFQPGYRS

In one test the target is phosphorylated active hERK2 enzyme (Homo sapiens (Human), UniProt P28482). In words: Active Human ERK2 (hERK2) Activity Assay (IMAP-FP). It counts as biochemical. Particulars: Table 5, 0.5 nM hERK2, 30 μM ATP, 10 point titration, read-out: AERK2 IC50. The essentials:
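IMAP detection beads in buffer with 24 mM NaCl stopped the reaction, and fluorescence polarization was read after 60 min binding.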
As to `C[C@@H](NC(=O)Nc1cc2[nH]nc(NS(=O)(=O)C3CCC3)c2cn1)c1ccccc1` [Example 53, N-[6-({[(1R)-1-phenylethyl]carbamoyl}amino)-1H-pyrazolo[4,3-c]pyridin-3-yl]cyclobutanesulfonamide], the IC50 came out at 424 nM.

Regarding `CCNc1n[nH]c2cc(NC(=O)N[C@H](C)c3ccccc3)nc(C)c12` [Example 38, 1-[3-(ethylamino)-4-methyl-1H-pyrazolo[4,3-c]pyridin-6-yl]-3-[(1R)-1-phenylethyl]urea], the IC50 came out at 13.9 nM.

Staying with this test, now noted: Table 6, 0.5 nM hERK2, 30 μM ATP, 10 point titration, read-out: AERK2 IC50.
For `CC(C)(O)[C@@H](NC(=O)Nc1cc2[nH]nc(NC(=O)N3CC(F)(F)C3)c2cn1)c1ccc(F)cc1` [Example 129, 3,3-difluoro-N-[6-({[(1S)-1-(4-fluorophenyl)-2-hydroxy-2-methylpropyl]-carbamoyl}amino)-1H-pyrazolo[4,3-c]pyridin-3-yl]-azetidine-1-carboxamide], the IC50 is 0.4 nM.

As for `CSC[C@@H](NC(=O)Nc1cc2[nH]nc(N)c2cn1)c1ccccc1` [Example 357, 1-(3-amino-1H-pyrazolo[4,3-c]-pyridin-6-yl)-3-[(1S)-2-(methylsulfanyl)-1-phenylethyl]urea], the IC50 amounted to 1.4 nM.

For the molecule `COC(=O)Nc1n[nH]c2cc(NC(=O)N[C@@H]3CN(C)C[C@H]3c3ccccc3)ncc12` [Example 291, methyl[6-({[(3S,4R)-1-methyl-4-phenyl-pyrrolidin-3-yl]carbamoyl}-amino)-1H-pyrazolo[4,3-c]pyridin-3-yl]-carbamate], the IC50 worked out at 1 nM.

As for `CC(CC1CCCCN1)Nc1n[nH]c2cc(NC(=O)N[C@H](C)c3ccccc3)ncc12` (stereo partly drawn) [Example 176, 1-{3-[(1-methyl-2-piperidin-2-ylethyl)amino]-1H-pyrazolo[4,3-c]pyridin-6-yl}-3-[(1R)-1-phenylethyl]urea], the IC50 stood at 38.2 nM.

Take `CCNc1n[nH]c2cc(NC(=O)NCc3cnsn3)ncc12` [Example 231, 1-[3-(ethylamino)-1H-pyrazolo[4,3-c]pyridin-6-yl]-3-(1,2,5-thiadiazol-3-ylmethyl)urea]: the IC50 was 57 nM.

For the molecule `CCNc1n[nH]c2cc(NC(=O)N[C@H](C)c3cccc(Cl)c3)ncc12` [Example 246, 1-[(1R)-1-(3-chlorophenyl)ethyl]-3-[3-(ethylamino)-1H-pyrazolo[4,3-c]pyridin-6-yl]urea], the IC50 is 2.4 nM.

As to `COC[C@@H](NC(=O)Nc1cc2[nH]nc(Nc3cnn(C)c3)c2cn1)c1ccc(F)cc1` [Example 372, 1-[(1S)-1-(4-fluorophenyl)-2-methoxyethyl]-3-{3-[(1-methyl-1H-pyrazol-4-yl)-amino]-1H-pyrazolo[4,3-c]-pyridin-6-yl}urea], the IC50 was determined as 14.7 nM.

Consider `C[C@@H](NC(=O)Nc1cc2[nH]nc(N)c2cn1)c1ccc(F)c(Cl)c1` [Example 271, 1-(3-amino-1H-pyrazolo[4,3-c]pyridin-6-yl)-3-[(1R)-1-(3-chloro-4-fluorophenyl)-ethyl]urea], for which the IC50 was found to be 17.3 nM.

For `CCNc1n[nH]c2cc(NC(=O)NC3CCCC3c3ccccc3)ncc12` (stereo not shown) [Example 237, 1-[3-(ethylamino)-1H-pyrazolo[4,3-c]pyridin-6-yl]-3-(2-phenyl-cyclopentyl)urea], the IC50 worked out at 8.3 nM.

On to `CN1C[C@@H](NC(=O)Nc2cc3[nH]nc(N)c3cn2)[C@H](c2ccccc2)C1` [Example 277, 1-(3-amino-1H-pyrazolo[4,3-c]pyridin-6-yl)-3-[(3S,4R)-1-methyl-4-phenylpyrrolidin-3-yl]urea], for which the IC50 was determined as 3.2 nM.

As to `COc1cccc(F)c1CNC(=O)Nc1cc2[nH]nc(N)c2cn1` [Example 269, 1-(3-amino-1H-pyrazolo[4,3-c]pyridin-6-yl)-3-(2-fluoro-6-methoxy-benzyl)urea], the IC50 amounted to 3.3 nM.

As to `CCNc1n[nH]c2cc(NC(=O)N[C@@H](c3ccccc3)C(C)(C)OC)ncc12` [Example 431, 1-[3-(ethylamino)-1H-pyrazolo[4,3-c]pyridin-6-yl]-3-[(1S)-2-methoxy-2-methyl-1-phenylpropyl]urea], the 50% inhibitory concentration (IC50) stood at 0.5 nM.

Regarding `CCNc1n[nH]c2cc(NC(=O)N[C@@H](c3ccccc3)[C@@H]3CCCO3)ncc12` [Example 148, 1-[3-(ethylamino)-1H-pyrazolo[4,3-c]pyridin-6-yl]-3-{(S)-phenyl[(2S)-tetrahydrofuran-2-yl]methyl}urea], the IC50 came out at 0.8 nM.

Turning to `C[C@@H](NC(=O)Nc1cc2[nH]nc(NC3CCNC3)c2cn1)c1ccccc1` (stereo partly drawn) [Example 184, 1-[(1R)-1-phenylethyl]-3-[3-(pyrrolidin-3-ylamino)-1H-pyrazolo[4,3-c]pyridin-6-yl]urea], the IC50 is 102 nM.

Take `C[C@@H](NC(=O)Nc1cc2[nH]nc(NC3CCCC3)c2cn1)c1ccccc1` [Example 186, 1-[3-(cyclopentyl-amino)-1H-pyrazolo[4,3-c]-pyridin-6-yl]-3-[(1R)-1-phenylethyl]urea]: the half-inhibitory concentration (IC50) was 2.3 nM.

As for `C[C@@H](NC(=O)Nc1cc2[nH]nc(NC(=O)N[C@H](C)c3ccc(Cl)c(O)c3)c2cn1)c1ccc(Cl)c(O)c1` [Example 308, N′,N″′-1H-pyrazolo[4,3-c]-pyridine-3,6-diylbis{1-[(1R)-1-(4-chloro-3-hydroxyphenyl)-ethyl]urea}], the IC50 was 461 nM.

On to `Nc1n[nH]c2cc(NC(=O)N[C@@H]3CCOc4ccccc43)ncc12` [Example 258, 1-(3-amino-1H-pyrazolo[4,3-c]pyridin-6-yl)-3-[(4R)-3,4-dihydro-2H-chromen-4-yl]-urea], for which the IC50 was 103 nM.

Take `CCNc1n[nH]c2cc(NC(=O)NC(c3ccc(F)cc3)C(C)(C)O)ncc12` (stereo not shown) [Example 429, 1-[3-(ethylamino)-1H-pyrazolo[4,3-c]pyridin-6-yl]-3-[1-(4-fluorophenyl)-2-hydroxy-2-methylpropyl]urea]: the IC50 was 1.1 nM.

In the case of `CC(C)(O)[C@@H](NC(=O)Nc1cc2[nH]nc(N3CC4CC3CO4)c2cn1)c1ccc(F)cc1` (stereo partly drawn) [Example 446, 1-[(1S)-1-(4-fluorophenyl)-2-hydroxy-2-methylpropyl]-3-[3-(2-oxa-5-azabicyclo[2.2.1]hept-5-yl)-1H-pyrazolo[4,3-c]pyridin-6-yl]urea], the IC50 is 0.8 nM.

Take `COC[C@@H](NC(=O)Nc1cc2[nH]nc(Nc3cnn(C)c3)c2cn1)c1ccccc1` [Example 370, 1-[(1S)-2-methoxy-1-phenylethyl]-3-{3-[(1-methyl-1H-pyrazol-4-yl)-amino]-1H-pyrazolo[4,3-c]-pyridin-6-yl}urea]: the IC50 was found to be 19.7 nM.

In the case of `COC1CCN(c2n[nH]c3cc(NC(=O)N[C@H](C)c4ccccc4)ncc23)CC1` [Example 413, 1-[3-(4-methoxypiperidin-1-yl)-1H-pyrazolo[4,3-c]-pyridin-6-yl]-3-[(1R)-1-phenylethyl]urea], the IC50 came to 4.5 nM.

With `CC(C)NC(=O)Nc1n[nH]c2cc(NC(=O)N[C@H](C)c3ccccc3)ncc12` [Example 218, 1-(1-methylethyl)-3-[6-({[(1R)-1-phenylethyl]-carbamoyl}amino)-1H-pyrazolo[4,3-c]pyridin-3-yl]urea], the half-maximal inhibitory concentration (IC50) is 25.1 nM.

Turning to `CCNc1n[nH]c2cc(NC(=O)N[C@@H](c3ccc(F)cc3)C(C)(C)O)ncc12` [Example 448, 1-[3-(ethylamino)-1H-pyrazolo[4,3-c]pyridin-6-yl]-3-[(1S)-1-(4-fluorophenyl)-2-hydroxy-2-methylpropyl]urea], the IC50 turned out to be 0.4 nM.
